Data reported in patent US9346799B2, “Useful combinations of monobactam antibiotics with beta-lactamase inhibitors” (Basilea Pharmaceutica AG, priority 2005, dated 2016).

Experiments:
Test in all cases: MIC by broth microdilution (NCCLS M7-A5)
[1] = tested on: Pseudomonas aeruginosa MK1184
[2] = tested on: Stenotrophomonas malthophilia 1AC736; conditions: Stenotrophomonas maltophilia 1AC736
[3] = tested on: Pseudomonas aeruginosa 1973E
[4] = tested on: Klebsiella pneumoniae CF104
Serratia marcescens S6 = tested on: Serratia marcescens S6
[5] = tested on: Enterobacter aerogenes B1; conditions: E. aerogenes B1; + compound 323 and sulbactam, 4 mg/L each
[6] = tested on: Enterobacter aerogenes Zayakosky; conditions: for MIC of antibiotic: Enterobacter aerogenes Zayakosky 5
Acinetobacter sp. J2 = conditions: Acinetobacter baumannii J2
Enterobacter cloacae P99 = tested on: Enterobacter cloacae P99
[7] = tested on: Acinetobacter baumannii J51; type: cell-based
Experimental: Antimicrobial activity of the compounds and of their combinations was determined against a selection of organisms according to the standard procedures described by the National Committee for Clinical Laboratory Standards (National Committee for Clinical Laboratory. Standards (2000). Methods for Dilution Antimicrobial Susceptibility Tests for Bacteria That Grow Aerobically-Fifth Edition: Approved Standard M7-A5. NCCLS, Wayne, Pa., USA).
In all cases the final concentration of DMSO incubated with the bacteria is less than or equal to 1%. […] Plates were incubated overnight at an appropriate temperature (30° C. or 37° C.) and optical densities assessed by eye. The MIC value is defined as the lowest compound concentration completely inhibiting visible growth of the test organism. When combinations between compounds of formula I with compounds of formula II and are evaluated the compounds of formula I are tested in dilution series as described above while the compounds of formula II and III-XIII were present in all wells at a constant concentration of 4 μg/mL each.

[8] = + 102 + clavulanate, 4 mg/L each
[9] = + 324 + clavulanate, 4 mg/L each

C[C@H]1[C@H](NC(=O)/C(=N\OC(C)(C)C(=O)O)c2csc(N)n2)C(=O)N1S(=O)(=O)O [Aztreonam, aztreonam, reference compound]
MIC of antibiotic ([1]; + 102 + sulbactam, 4 mg/L each): 16 µg/mL | MIC of antibiotic [2, 8]: 4 µg/mL | MIC of antibiotic ([2]; + 102 + sulbactam, 4 mg/L each): 8 µg/mL | MIC of antibiotic [3, 8]: 8 µg/mL | MIC of antibiotic ([3]; + 102 + sulbactam, 4 mg/L each): 4 µg/mL | MIC of antibiotic [4, 8]: 0.5 µg/mL | MIC of antibiotic ([4]; + 102 + sulbactam, 4 mg/L each): 1 µg/mL | MIC of antibiotic (Serratia marcescens S6; [8]): 2 µg/mL | MIC of antibiotic (Serratia marcescens S6; + 102 + sulbactam, 4 mg/L each): 2 µg/mL | Minimal Inhibitory Concentration of antibiotic [5]: 8 mg/L | Minimal Inhibitory Concentration of antibiotic ([6]; E. aerogenes Zayakosky, + compound 323 and sulbactam, 4 mg/L each): 8 mg/L | MIC of antibiotic (Acinetobacter sp. J2; [8]): 16 µg/mL | MIC of antibiotic (Acinetobacter sp. J2; + 102 + sulbactam, 4 mg/L each): 4 µg/mL

CC1(C)[C@H](NC(=O)/C(=N\OCc2cc(=O)c(O)cn2O)c2csc(N)n2)C(=O)N1OS(=O)(=O)O [Compound 26, (3S)-3-{(2Z)-2-(2-amino(1,3-thiazol-4-yl))-3-[(1,5-dihydroxy-4-oxo(2-hydropyridyl))methoxy]-3-azaprop-2-enoylamino}-4,4-dimethyl-2-oxoazetidinyl hydroxysulfonate]
MIC of antibiotic ([1]; + 324 4 mg/L): 4 µg/mL | MIC of antibiotic ([1]; + 324 + sulbactam, 4 mg/L each): 2 µg/mL | MIC of antibiotic ([1]; + BRL427158 4 mg/L): 2 µg/mL | MIC of antibiotic ([1]; + clavulanate 4 mg/L): 4 µg/mL | MIC of antibiotic ([1]; antibiotic alone): 2 µg/mL | MIC of antibiotic ([2]; + 324 4 mg/L): 0.25 µg/mL | MIC of antibiotic ([2]; + 324 + sulbactam, 4 mg/L each): 0.25 µg/mL | MIC of antibiotic ([2]; + BRL427158 4 mg/L): 0.125 µg/mL | MIC of antibiotic ([2]; + clavulanate 4 mg/L): ≦0.06 mg/L | MIC of antibiotic ([2]; antibiotic alone): <0.06 µg/mL | MIC of antibiotic ([3]; + 324 4 mg/L): 4 µg/mL | MIC of antibiotic ([3]; + 324 + sulbactam, 4 mg/L each): 2 µg/mL | MIC of antibiotic ([3]; + BRL427158 4 mg/L): 2 µg/mL | MIC of antibiotic ([3]; + clavulanate 4 mg/L): 2 µg/mL | MIC of antibiotic ([3]; antibiotic alone): 16 µg/mL | MIC of antibiotic ([4]; + 324 4 mg/L): 16 µg/mL | MIC of antibiotic ([4]; + 324 + sulbactam, 4 mg/L each): 1 µg/mL | MIC of antibiotic ([4]; + BRL427158 4 mg/L): 0.125 µg/mL | MIC of antibiotic ([4]; + clavulanate 4 mg/L): 0.5 µg/mL | MIC of antibiotic ([4]; antibiotic alone): 32 µg/mL | MIC of antibiotic (Enterobacter cloacae P99; + 324 4 mg/L): 2 µg/mL | MIC of antibiotic (Enterobacter cloacae P99; + 324 + sulbactam, 4 mg/L each): 2 µg/mL | MIC of antibiotic (Enterobacter cloacae P99; + BRL427158 4 mg/L): 2 µg/mL | MIC of antibiotic (Enterobacter cloacae P99; + clavulanate 4 mg/L): 8 µg/mL | MIC of antibiotic (Enterobacter cloacae P99; antibiotic alone): 16 µg/mL | MIC of antibiotic (Serratia marcescens S6; + 324 4 mg/L): ≦0.06 mg/L | MIC of antibiotic (Serratia marcescens S6; + 324 + sulbactam, 4 mg/L each): <0.06 µg/mL | MIC of antibiotic (Serratia marcescens S6; + BRL427158 4 mg/L): ≦0.06 mg/L | MIC of antibiotic (Serratia marcescens S6; + clavulanate 4 mg/L): ≦0.06 mg/L | MIC of antibiotic (Serratia marcescens S6; antibiotic alone): <0.06 µg/mL | MIC of antibiotic ([6]; + 324 4 mg/L): 4 µg/mL | MIC of antibiotic ([6]; + BRL427158 4 mg/L): 0.5 µg/mL | MIC of antibiotic ([6]; + clavulanic acid 4 mg/L): 8 µg/mL | MIC of antibiotic ([6]; antibiotic alone): 16 µg/mL | MIC of antibiotic ([7]; + 324 4 mg/L): 2 µg/mL | MIC of antibiotic ([7]; + BRL427158 4 mg/L): 32 µg/mL | MIC of antibiotic ([7]; + clavulanic acid 4 mg/L): 1 µg/mL | MIC of antibiotic ([7]; antibiotic alone): 4 µg/mL | MIC of antibiotic (Acinetobacter sp. J2; + 324 4 mg/L): 4 µg/mL | MIC of antibiotic (Acinetobacter sp. J2; + 324 + sulbactam, 4 mg/L each): 2 µg/mL | MIC of antibiotic (Acinetobacter sp. J2; + BRL427158 4 mg/L): 0.5 µg/mL | MIC of antibiotic (Acinetobacter sp. J2; + clavulanate 4 mg/L): >32 µg/mL | MIC of antibiotic (Acinetobacter sp. J2; antibiotic alone): 4 µg/mL

NC(=O)OCC1C(NC(=O)C(=NOCc2cc(=O)c(O)cn2O)c2nc(N)sc2Cl)C(=O)N1OS(=O)(=O)O (centres unmarked) [Compound 47]
MIC of antibiotic [1, 8]: 2 µg/mL | MIC of antibiotic [1, 9]: 4 µg/mL | MIC of antibiotic ([1]; antibiotic alone): 4 µg/mL | MIC of antibiotic [2, 8]: 1 µg/mL | MIC of antibiotic [2, 9]: 1 µg/mL | MIC of antibiotic ([2]; antibiotic alone): 1 µg/mL | MIC of antibiotic [3, 8]: 4 µg/mL | MIC of antibiotic [3, 9]: 8 µg/mL | MIC of antibiotic ([3]; antibiotic alone): 8 µg/mL | MIC of antibiotic [4, 8]: 4 µg/mL | MIC of antibiotic [4, 9]: 2 µg/mL | MIC of antibiotic ([4]; antibiotic alone): >32 µg/mL | MIC of antibiotic (Enterobacter cloacae P99; [8]): 16 µg/mL | MIC of antibiotic (Enterobacter cloacae P99; [9]): 32 µg/mL | MIC of antibiotic (Enterobacter cloacae P99; antibiotic alone): >32 µg/mL | MIC of antibiotic (Serratia marcescens S6; [8]): 2 µg/mL | MIC of antibiotic (Serratia marcescens S6; [9]): 2 µg/mL | MIC of antibiotic (Serratia marcescens S6; antibiotic alone): 2 µg/mL | MIC of antibiotic (Acinetobacter sp. J2; [8]): >32 µg/mL | MIC of antibiotic (Acinetobacter sp. J2; [9]): >32 µg/mL | MIC of antibiotic (Acinetobacter sp. J2; antibiotic alone): >32 µg/mL
